Measured values taken from patent US20050130134A1, “Means and methods for monitoring non-nucleoside reverse transcriptase inhibitor antiretroviral therapy and guiding therapeutic decisions in the treatment HIV-AIDS” (ViroLogic, Inc., priority 2000, published 2005).
Entries after “also recorded” stand apart in the source; their conditions may differ.

What was measured:
[1] = system: HIV reverse transcriptase K103N + Y181C double mutant; conditions: K103N + Y181C double mutant compared to single mutants, FIG. 5
Description: (§1) Resistance tests were carried out with resistance test vectors using two host cell types. Resistance test vector viral particles were produced by a first host cell (the resistance test vector host cell) that was prepared by transfecting a packaging host cell with the resistance test vector and the packaging expression vector. The resistance test vector viral particles were then used to infect a second host cell (the target host cell) in which the expression of the indicator gene is measured.
(§2) The resistance test vectors containing a functional luciferase gene cassette were constructed and host cells were transfected with the resistance test vector DNA. The resistant test vectors contained patient-derived reverse transcriptase and protease sequences that were either susceptible or resistant to the antiretroviral agents, such as nucleoside reverse transcriptase inhibitors, non-nucleoside reverse transcriptase inhibitors and protease inhibitors. The resistance test vector viral particles produced by transfecting the resistance test vector DNA into host cells, either in the presence or absence of protease inhibitors, were used to infect target host cells grown either in the absence of NRTI or NNRTI or in the presence of increasing concentrations of the drug. The amount of luciferase activity produced in infected target host cells in the presence of drug was compared to the amount of luciferase produced in infected target host cells in the absence of drug. Drug resistance was measured as the amount of drug required to inhibit by 50% the luciferase activity detected in the absence of drug (inhibitory concentration 50%, IC50). The IC50 values were determined by plotting percent drug inhibition vs. log10 drug concentration.
(§3) Host cells were seeded in 10-cm-diameter dishes and were transfected several days after plating with resistance test vector plasmid DNA and the envelope expression vector. Transfections were performed using a calcium-phosphate precipitation procedure. The cell culture media containing the DNA precipitate was replaced with fresh medium, from one to 24 hours, after transfection. Cell culture media containing resistance test vector viral particles was harvested one to four days after transfection and was passed through a […] filter before being stored at −80° C. HIV capsid protein (p24) levels in the harvested cell culture media were determined by an EIA method as described by the manufacturer (SIAC; Frederick, Md.). Before infection, target cells (293 and 293/T) were plated in cell culture media. Control infections were performed using cell culture media from mock transfections (no DNA) or transfections containing the resistance test vector plasmid DNA without the envelope expression plasmid. One to three or more days after infection the media was removed and cell lysis buffer (Promega) was added to each well. […] The inhibitory effect of the drug was determined using the following equation: % luciferase inhibition=1-(RLUluc[drug]÷RLUluc)×100 where RLUluc [drug] is the relative light unit of luciferase activity in infected cells in the presence of drug and RLUluc is the Relative Light Unit of luciferase activity in infected cells in the absence of drug. IC50 values were obtained from the sigmoidal curves that were generated from the data by plotting the percent inhibition of luciferase activity vs. the log10 drug concentration.

[2] = system: RTV-675 patient virus (RT A98G); conditions: >1 decreased susceptibility
Description: as §1, §2, §3

[3] = system: patient 487 virus (RT M184V, K103N); conditions: FIG. 4
Description: as §1, §2, §3

[4] = system: RTV-757 patient virus (RT V106A, V108I, V189L); test: Phenotypic susceptibility assay, RTV-757 (patient 98-757); type: cell-based, HIV-1; conditions: RTV-757 patient virus (same patient as RTV-1033, later time point)
Description: (§4) Transfections were performed using a calcium-phosphate precipitation procedure. […] Cell lysates were assayed for luciferase activity (FIG. 3). […] The drug inhibition curves are shown in (FIG. 3).

[5] = system: RTV-1058 clone 10 (RT L100I, K103N, Y188L); test: Phenotypic susceptibility assay, RTV-1058 clone 10; type: cell-based, HIV-1
Description: as §4

[6] = system: RTV-268 patient virus (RT P236L with M41L, D67N, M184V, L210W, T215Y, K219Q); test: Phenotypic susceptibility assay, RTV-268 (patient 97-268); type: cell-based, HIV-1; conditions: RTV-268 patient virus compared to reference virus
Description: as §1, §2, §3
A resistance test vector was constructed as described in Example 1 from a patient sample designated 97-268. […] Isolation of viral RNA and RT/PCR was used to generate a patient derived segment that comprised viral sequences coding for all of PR and amino acids 1-313 of RT. The patient derived segment was inserted into a indicator gene viral vector to generate a resistance test vector designated RTV-268.

[7] = system: RTV-964 patient virus (RT Y181I); test: Phenotypic susceptibility assay, RTV-964 (patient 98-964); type: cell-based, HIV-1
Description: as §4

[8] = system: HIV-1 reverse transcriptase Y188H (Y188H-RTV); conditions: >1 loss of susceptibility
Description: as §1
(§5) The resistance test vectors containing a functional luciferase gene cassette were constructed and host cells were transfected with the resistance test vector DNA. The resistant test vectors contained patient-derived reverse transcriptase and protease sequences that were either susceptible or resistant to the antiretroviral agents, such as nucleoside reverse transcriptase inhibitors, non-nucleoside reverse transcriptase inhibitors and protease inhibitors. […] The IC50 values were determined by plotting percent drug inhibition vs. log10 drug concentration.
(§6) Host cells were seeded in 10-cm-diameter dishes and were transfected several days after plating with resistance test vector plasmid DNA and the envelope expression vector. […] HIV capsid protein (p24) levels in the harvested cell culture media were determined by an EIA method as described by the manufacturer (SIAC; Frederick, Md.). […]

[9] = system: HIV-1 reverse transcriptase K103N + Y188L (K103N-Y188L-RTV); test: Phenotypic susceptibility assay, site directed mutant K103N-Y188L-RTV; type: cell-based; conditions: >1 loss of susceptibility
Description: as §1, §5, §6

[10] = system: HIV-1 reverse transcriptase L100I + K103N (L100I-K103N-RTV); test: Phenotypic susceptibility assay, site directed mutant L100I-K103N-RTV; type: cell-based; conditions: >1 loss of susceptibility
Description: as §1, §5, §6

[11] = system: HIV-1 reverse transcriptase L100I + K103N + Y188L (L100I-K103N-Y188L-RTV); test: Phenotypic susceptibility assay, site directed mutant L100I-K103N-Y188L-RTV; type: cell-based; conditions: >1 loss of susceptibility
Description: as §1, §5, §6

[12] = system: Tyr181Cys (Y181C) mutation of HIV RT; conditions: cited from earlier work

Compound	resistance profile [1]	fold change in susceptibility [2] [fold]	resistance profile [3]	decrease in susceptibility [4]	loss of susceptibility [5]	change in susceptibility / resistance [6]	decrease in susceptibility [7] [fold]	fold change in susceptibility compared to wild type control RTV [8] [fold]	fold change in susceptibility compared to wild type control RTV [9]	fold change in susceptibility compared to wild type control RTV [10] [fold]	fold change in susceptibility compared to wild type control RTV [11]	reduction in sensitivity [12] [fold]
CC(C)Nc1cccnc1N1CCN(C(=O)c2cc3cc(NS(C)(=O)=O)ccc3[nH]2)CC1 [delavirdine]	further increase in resistance	2.1	increased resistance	10 fold	greater than 250 fold	–	–	–	–	–	–	–
Cc1ccnc2c1NC(=O)c1cccnc1N2C1CC1 [nevirapine]	further increase in resistance	6	increased resistance	greater than 800 fold	greater than 800 fold	no change; also recorded: the same as wild type	750	3.5	greater than 800 fold	70	greater than 800 fold	100
